Patent US10100047B2, “Piperidine derivatives as orexin receptor antagonist” (SHANGHAI HAIYAN PHARMACEUTICAL TECHNOLOGY CO., LTD., priority 2014, dated 2018)
Read-outs that look alike come from different tables or passages of the source.

Assays:
hOX2R = molecular target: T1, hOX2R (Homo sapiens, UniProt O43614); test: In vitro test of OX2R: calcium signal change in cells detected with FLIPR; format: cell-based; settings: HEK293-OX2 stable cell strain, Fluo-4 AM calcium signal, Orexin A at EC70
T1 construct: expressed in transfected cells
T1 sequence (O43614 1-444): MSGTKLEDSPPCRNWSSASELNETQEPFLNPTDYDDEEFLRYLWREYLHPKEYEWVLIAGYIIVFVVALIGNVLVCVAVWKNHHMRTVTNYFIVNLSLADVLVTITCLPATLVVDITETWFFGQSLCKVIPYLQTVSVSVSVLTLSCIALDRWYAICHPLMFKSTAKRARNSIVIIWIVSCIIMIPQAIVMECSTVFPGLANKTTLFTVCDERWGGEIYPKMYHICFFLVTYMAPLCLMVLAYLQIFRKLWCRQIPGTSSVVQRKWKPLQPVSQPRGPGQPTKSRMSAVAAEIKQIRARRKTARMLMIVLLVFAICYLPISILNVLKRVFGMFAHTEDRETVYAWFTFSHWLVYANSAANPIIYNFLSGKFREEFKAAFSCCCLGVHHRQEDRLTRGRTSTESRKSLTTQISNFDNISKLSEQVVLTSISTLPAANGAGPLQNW
Protocol: (§1) The inhibitive effect of a compound on OX1 and OX2 GPCR receptor was evaluated by detecting calcium signal change in cells with FLIPR, and IC50 value of compound was used as an indication.
(§2) Experimental Materials: • Cell line: HEK293-OX1 and OX2 stable cell strain • HEK293-OX1 cell culture media (DMEM, Invitrogen#11960-044, 10% serum Gibco#10099141, L-Glutamine 1×, Gibco#25030, sodium pyruvate 1×, Gibco #11360, Geneticin 300 μg/ml, Gibco #10131). • HEK293-OX2 cell culture media (DMEM, Invitrogen#11960-044, 10% serum Gibco#10099141, L-Glutamine 1×, Gibco#25030, sodium pyruvate 1×, Gibco #11360, Geneticin 300 μg/ml, Gibco #10131, Blasticin 2 μg/ml, Invitrogen # R21001). • Pancreatic enzyme (Invitrogen, #25200-072) • DPBS (Hyclone, #SH30028.01B) • Fluo-4 AM, Invitrogen# F14202 • F-127, Invitrogen # P3000MP • Probenecid, Sigma # P8761 • 384-well cell plate, Greiner #781946 • 384-well compound plate, Greiner #781280 • CO2 incubator, Thermo#371 • Centrifuge, Eppendorf #5810R • Vi-cell cytometry, Beckman Coulter • POD 810 Plate Assembler Automatic microplate pretreatment system • Labcyte FLIPR, Molecular Device.
(§3) a) cell inoculation (HEK293-OX1 and HEK293-OX2 cells) • 1) The medium trypsin, and DPBS were preheated at 37° C. under water bath. Culture medium of cells was sucked and cells were washed with 10 mL DPBS. • 2) The preheated trypsin was added into the culture bottle which was rotated so that trypsin uniformly covered the bottle. It was placed in an incubator (37° C., 5% CO2) to digest for 1-2 minutes; • 3) Each T150 was suspended with 10-15 mL of culture medium, and centrifuged at 800 rpm for 5 minutes. Cells were resuspended with 10 mL medium, and 1 mL of the cell re-suspension was sucked out and counted with Vi-cell cytometry. • 4) The OX1 cells were diluted with culture medium to 5×10^5 cells/mL, and OX2 cells were diluted to 4×10^5 cells/mL. The diluted cells were added into 384 plate (Greiner. 781946) with multichannel pipettes (50 μL/hole, OX1 cells: 25000 cells/hole; and OX2 cells: 20000 cells/hole). The cell plate was placed in an incubator (37° C., 5% CO2) overnight.
(§4) b) loading of the compound: • 1) DMSO was used to dilute the compound into 20 mM by using 3-fold dilution. 8 gradients in duplicate wells were used. Echo liquid handler was used to add the compound into a compound plate. Then 20 μL buffer was added to ensure that the final DMSO concentration was 0.1%.
(§5) c) FLIPR Experiment: • 1) The cell culture medium in 384-well plate was washed away with a vacuum pump. 30 μL fluorescent dye Fluo4AM was added. […] 8 gradients in duplicate wells were used. Then the DMSO plate was prepared and the DMSO concentration was 0.5%. The cell plate, Orexin A plate, and DMSO plate were placed into FLIPR respectively, and the fluorescence values were read. • 3) EC70 value was calculated based on EC50 value of Orexin A. 5×EC70 solution was prepared and added into a 384-well compound plate with multichannel pipettes. The plate was placed on ice for preservation. • 4) In the FLIPR, the compound plate, 5×EC70 plate, cell plate and FLIPR tips were placed respectively. The program was run and the fluorescence values were read.
(§6) d) Data Analysis: Prism5.0 was used to analysis the data, and the IC50 value of the compound was calculated.

hOX1R = molecular target: T2, hOX1R (Homo sapiens, UniProt O43613); test: In vitro test of OX1R: calcium signal change in cells detected with FLIPR; format: cell-based; settings: HEK293-OX1 stable cell strain, Fluo-4 AM calcium signal, Orexin A at EC70
T2 construct: expressed in transfected cells
T2 sequence (O43613 1-425): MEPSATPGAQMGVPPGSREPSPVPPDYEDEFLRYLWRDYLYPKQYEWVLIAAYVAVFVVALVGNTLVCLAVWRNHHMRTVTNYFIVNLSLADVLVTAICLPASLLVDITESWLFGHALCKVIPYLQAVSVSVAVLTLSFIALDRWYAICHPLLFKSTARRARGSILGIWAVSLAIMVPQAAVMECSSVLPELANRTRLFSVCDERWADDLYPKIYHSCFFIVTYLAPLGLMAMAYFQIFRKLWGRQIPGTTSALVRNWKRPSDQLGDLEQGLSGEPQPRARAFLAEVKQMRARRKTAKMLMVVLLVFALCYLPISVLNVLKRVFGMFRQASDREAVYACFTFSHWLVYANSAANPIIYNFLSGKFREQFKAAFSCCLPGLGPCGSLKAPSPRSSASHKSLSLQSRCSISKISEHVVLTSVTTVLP
Protocol: as §1, §2, §3, §4, §5, §6

[1] = read-out: IC50 detected in FLIPR, hOX2R
[2] = read-out: IC50 detected in FLIPR, hOX1R

Structure (SMILES) | IC50 (hOX2R; [1]) [nM] | IC50 (hOX1R; [2]) [nM] | IC50 (hOX2R; IC50 detected in FLIPR, hOX2R) [nM] | IC50 (hOX1R; IC50 detected in FLIPR, hOX1R) [nM]
Cc1ccc(-c2ncccn2)c(C(=O)N2C3CCC2C(F)(COc2ccc(F)cn2)CC3)c1 (stereo not shown) [Example 26] | 37 | 48 |  | 
Cc1ccc(-n2nccn2)c(C(=O)N2C3CCC(COc4ccc(F)cn4)C2CC3)c1 (single isomer, unassigned) [Example 4] | 195 | 217 |  | 
Cc1cccc(S(=O)(=O)N2C3CC[C@H]2CC[C@@H]3COc2ccc(F)cn2)c1 [Example 22] |  |  | 1370 | 2420
Cc1ccc(-c2cncnc2)c(C(=O)N2C3CCC2[C@@H](COc2ccc(F)cn2)CC3)c1 (stereo partly shown) [Example 34] |  |  | 2510 | 2300
Cc1ccc(-c2ncccn2)c(C(=O)N2C3CC[C@H]2CC[C@@H]3COc2ccncc2)c1 [Example 32] | 6 | 7 |  | 
Cc1ccc(-c2ncccn2)c(C(=O)N2C3CCC(COc4ccc(F)cn4)C2CC3)c1 (single isomer, unassigned) [Example 7] | 291 | 1270 |  | 
Cc1ccc(-c2nccs2)c(C(=O)N2C3CC[C@H]2CC[C@@H]3OCc2ccc(F)cn2)c1 [Example 37] |  |  | 36 | 20
Cc1ccc(-c2ncccn2)c(C(=O)N2C[C@H](COc3ccc(F)cn3)CC[C@H]2C)c1 [MK6096, reference compound] | 29 | 36 |  | 
Cc1ccc(-c2ccncc2)c(C(=O)N2C3CC[C@H]2CC[C@@H]3COc2ccc(F)cn2)c1 [Example 13] |  |  | 663 | 47
O=C(c1cc(C(F)(F)F)ccc1-c1ncccn1)N1C2CC[C@H]1CC[C@@H]2COc1ccc(F)cn1 [Example 35] |  |  | 1420 | 2070
Cc1ccc(-c2ncccn2)c(C(=O)N2C3CCC(C(=O)Nc4ccccc4O)C2CC3)c1 (stereo not shown) [Example 27] |  |  | 3000 | 3000
Cc1ccc(-c2ncccn2)c(C(=O)N2C3CCC(COc4ncc(Cl)cc4F)C2CC3)c1 (stereo not shown) [Example 25] | 124 | 113 |  | 
O=C(c1cc(F)ccc1-n1nccn1)N1C2CC[C@H]1CC[C@@H]2COc1ccc(F)cn1 [Example 14] |  |  | 20 | 16
Cc1ccc(OCC2CCC3CCC2N3C(=O)c2cc(C)ccc2-c2ncccn2)nc1 (stereo not shown) [Example 24] |  |  | 87 | 56
Cc1ccc(-n2cccn2)c(C(=O)N2C3CC[C@H]2CC[C@@H]3COc2ccc(F)cn2)c1 [Example 20] |  |  | 26 | 7
Cc1ccc(-c2cccnc2)c(C(=O)N2C3CCC2[C@@H](COc2ccc(F)cn2)CC3)c1 (stereo partly shown) [Example 33] |  |  | 24 | 10
Cc1ccc(-c2ncccn2)c(C(=O)N2C3CCC2[C@@H](COc2ccccn2)CC3)c1 (stereo partly shown) [Example 23] |  |  | 97 | 45
